{"source": "patent US7666307B2", "about": "“Particle size reduction of bioactive compounds” (K.U. Leuven Research & Development, priority 2003, dated 2010)", "key": {"[1]": {"conditions": "cited from earlier work"}, "[2]": {"assay": "Dissolution test of loperamide samples, USP 24 paddle method, HPLC", "type": "physicochemical", "conditions": "37 °C, paddle 100 rpm", "experimental": "Four different samples containing loperamide (commercially available from Janssen Pharmaceutica, Beerse, Belgium) were prepared and their dissolution profiles were measured. 1 g/l of loperamide and 10 g/l of Aerosil 380 (a silicate commercially available from Degussa, Dusseldorf, Germany) were mixed with bi-distilled water in a mortar. An untreated sample was prepared by fast solidification of part of this suspension in a pre-cooled ball that was kept in liquid nitrogen followed by freeze-drying. […]\nDissolution experiments were performed in a SR8 PLUS Hanson dissolution test station (commercially available from Chatsworth, United States) while using the USP 24 method (paddle method, 100 rpm). […] The corresponding concentrations were determined from the calibration curve with HPLC.\nThe HPLC system used for this determination consisted of LiChroGraph® L-7100 HPLC pump, an auto-sampler model L-7200 equipped with a 100 μl loop, a UV detector model L-7400 set at 220 nm, and an Interface D-7000, all from commercially available from Merck-Hitachi (Darmstadt, Germany). UV signals were monitored and peaks were integrated using the D-7000 HSM software. […]"}}, "data": [{"smiles": "C#C[C@]1(O)CC[C@H]2[C@@H]3CCC4=Cc5oncc5C[C@]4(C)[C@H]3CC[C@@]21C", "note": "[danazol]", "values": [{"measurement": "size to which 10% of the particles are reduced", "setting": "[1]; dispersion refined by electric field, U.S. Pat. No. 5,503,723", "value": 180, "unit": "nm"}]}, {"smiles": "CN(C)C(=O)C(CCN1CCC(O)(c2ccc(Cl)cc2)CC1)(c1ccccc1)c1ccccc1", "note": "[loperamide]", "values": [{"measurement": "dissolution rate versus corresponding untreated sample", "setting": "[2]; magnetic treatment in the presence of a silicate (Aerosil)", "value": "significantly increased"}, {"measurement": "dissolution rate versus corresponding untreated sample", "setting": "[2]; magnetic treatment in the presence of a surfactant (Tween 80)", "value": "significantly increased"}]}, {"smiles": "CCCCNc1ccc(C(=O)OCCN(C)C)cc1", "note": "[tetracaine]", "values": [{"measurement": "average particle diameter", "setting": "[1]; aqueous nanosuspensions, U.S. Pat. No. 5,858,410", "value": 91, "unit": "nm"}]}]}
